The subject of one experiment is IPOHE. Put plainly: Example V (second) postemergence foliar-applied ternary mixtures, greenhouse, direct seeded rice weeds. Conditions: 28 gai/ha. The experiment is classed as in vivo, Ipomoea hederacea Jacq. How it is done:
(§1) The treated plants and control plants were placed in a greenhouse as described above and watered by sub-irrigation to prevent wash-off of the test compounds. After approximately 3 weeks, the condition of the test plants as compared with that of the untreated plants was determined visually and scored on a scale of 0 to 100 percent where 0 corresponds to no injury or growth inhibition and 100 corresponds to complete kill.
(§2) Colby's equation was used to determine the herbicidal effects expected from the mixtures (Colby, S. R. 1967. Calculation of the synergistic and antagonistic response of herbicide combinations. Weeds 15:20-22.).
(§3) The following equation was used to calculate the expected activity of mixtures containing three active ingredients, A, B, and C: Expected=A+B+C−((A×B+A×C+B×C)/100)+(A×B×C/10000)

The test system of the next experiment is CYPES. Described as above. Particulars: 28 gai/ha. It counts as in vivo, Cyperus esculentus L. How it is done:
as §1, §2, §3

For the next experiment, the system named is APESV. Put plainly: Example IV postemergence foliar-applied, greenhouse, cereal crops weeds. The experiment is classed as in vivo, Apera spica-venti (L.) Beauv. How it is done:
(§4) Seeds of the desired test plant species were planted in Sun Gro MetroMix® 306 planting mixture, which typically has a pH of 6.0 to 6.8 and an organic matter content of about 30 percent, in plastic pots with a surface area of 103.2 square centimeters (cm^2). […] The plants were grown for 7-36 days in a greenhouse with an approximate 14 hour photoperiod which was maintained at about 18° C. during the day and about 17° C. during the night. Nutrients and water were added on a regular basis and supplemental lighting was provided with overhead metal halide 1000-Watt lamps as necessary. The plants were employed for testing when they reached the second or third true leaf stage.
(§5) Treatments consisted of the benzyl ester of 4-amino-3-chloro-5-fluoro-6-(4-chloro-2-fluoro-3-methoxy-phenyl)pyridine-2-carboxylic acid (Compound A), formulated as an SC, a second cereal herbicide alone and then both in combination.
(§6) Other herbicidal components were applied on an active ingredient basis and included acetyl-CoA carboxylase (ACCase)-inhibiting herbicides clodinafop-propargyl, fenoxaprop-P-ethyl, pinoxaden and tralkoxydim.
(§7) Measured aliquots of benzyl ester of 4-amino-3-chloro-5-fluoro-6-(4-chloro-2-fluoro-3-methoxy-phenyl)pyridine-2-carboxylic acid (Compound A) were placed in 25 milliliter (mL) glass vials and diluted in a volume of 1.25% (v/v) Agri-Dex® crop oil concentrate to obtain stock solutions. Compound requirements are based upon a 12 mL application volume at a rate of 187 liters per hectare (L/ha). […] Formulated compounds were applied to the plant material with an overhead Mandel track sprayer equipped with an 8002E nozzle calibrated to deliver 187 L/ha over an application area of 0.503 square meters (m^2) at a spray height of 18 inches (46 cm) above average plant canopy. Control plants were sprayed in the same manner with the solvent blank.
(§8) The treated plants and control plants were placed in a greenhouse as described above and watered by sub-irrigation to prevent wash-off of the test compounds. After 20-22 days, the condition of the test plants as compared with that of the control plants was determined visually and scored on a scale of 0 to 100 percent where 0 corresponds to no injury and 100 corresponds to complete kill.
as §2
(§9) The following equation was used to calculate the expected activity of mixtures containing two active ingredients, A and B: Expected=A+B−(A×B/100)

The test system of the next experiment is KCHSC. The experiment is described as above. The experiment is classed as in vivo, Kochia scoparia (L.) Schrad. How it is done: as §4, §5, §6, §7, §8, §2, §9
The test system of the next experiment is PHAMI. The experiment is described as above. It counts as in vivo, Phalaris minor Retz. On the procedure: as §4, §5, §6, §7, §8, §2, §9
For the next experiment, the system named is ECHCO. Put plainly: Example V (second) postemergence foliar-applied ternary mixtures, greenhouse, direct seeded rice weeds. It counts as in vivo, Echinochloa colona (L.) Link. Conditions: 115 gai/ha. How it is done:
as §1, §2, §3

In a further experiment the test system is ECHCG. The experiment is described as above. It counts as in vivo, Echinochloa crus-galli (L.) Beauv. Particulars: 105 gae/ha. From the text: Seeds or nutlets of the desired test plant species were planted in a soil matrix prepared by mixing a sandy loam or loam soil (e.g., 32 percent silt, 23 percent clay, and 45 percent sand, with a pH of about 6.5 and an organic matter content of about 1.9 percent) and calcareous grit in an 80 to 20 ratio. The soil matrix was contained in plastic pots with a volume of 1 quart and a surface area of 83.6 square centimeters (cm^2). When required to ensure good germination and healthy plants, a fungicide treatment and/or other chemical or physical treatment was applied. The plants were grown for 8-22 days in a greenhouse with an approximate 14 hr. photoperiod which was maintained at about 29° C. during the day and 26° C. during the night. Nutrients (Peters Excel® 15-5-15 5-Ca 2-Mg and iron chelate) were applied in the irrigation solution as needed and water was added on a regular basis. Supplemental lighting was provided with overhead metal halide 1000-Watt lamps as necessary. The plants were employed for testing when they reached the first through fourth true leaf stage.
Treatments consisted of the benzyl ester of 4-amino-3-chloro-5-fluoro-6-(4-chloro-2-fluoro-3-methoxy-phenyl)pyridine-2-carboxylic acid (Compound A), formulated as an SC (suspension concentrate), an ACCase inhibitor, and a third herbicidal component, each applied alone and in ternary combination. Forms of compound A were applied on an acid equivalent basis.
The ACCase inhibitor component was applied on an active ingredient basis and included cyhalofop-R-butyl formulated as Clincher® SF, fenoxaprop-p-ethyl formulated as RiceStar® HT, and profoxydim formulated as Aura® 20EC. Other herbicidal components were applied on an active ingredient or acid equivalent basis depending on the compound and included penoxsulam formulated as Grasp® SC, bentazon sodium formulated as Basagran®, triclopyr […] (TEA) salt formulated as Grandstand® R, bispyribac sodium formulated as Regiment® 80WP, imazamox ammonium formulated as Beyond®, benzobicyclon, quinclorac formulated as Facet® 75DF, glyphosate dimethylammonium (DMA) salt formulated as Durango® DMA, glufosinate ammonium formulated as Ignite® 280, fentrazamide formulated as an emulsifiable concentrate (EC), propyrisulfuron formulated as Zeta One®, and indanofan (technical grade material).
Treatment requirements were calculated based upon the rates being tested, the concentration of active ingredient or acid equivalent in the formulation, and a 12 mL application volume at a rate of 187 L/ha.
For treatments comprised of formulated compounds, measured amounts of compounds were placed individually in 25 mL glass vials and diluted in a volume of 1.25% (v/v) Agri-Dex® crop oil concentrate to obtain 12× stock solutions. […] Application solutions were prepared by adding an appropriate amount of each stock solution (e.g., 1 mL) and diluted to the appropriate final concentrations with the addition of 9 mL of an aqueous mixture of 1.25% (v/v) crop oil concentrate so that the final spray solutions contained 1.25% (v/v) crop oil concentrate.
As required, additional water and/or 97:3 v/v acetone/DMSO was added to individual application solutions so that the final acetone and DMSO concentrations of the application solutions being compared were 8.1% and 0.25%, respectively.
All stock solutions and applications solutions were visually inspected for compound compatibility prior to application. Spray solutions were applied to the plant material with an overhead Mandel track sprayer equipped with a 8002E nozzles calibrated to deliver 187 L/ha over an application area of 0.503 m^2 at a spray height of 18 inches (46 cm) above average plant canopy height. Control plants were sprayed in the same manner with the solvent blank.
The treated plants and control plants were placed in a greenhouse as described above and watered by sub-irrigation to prevent wash-off of the test compounds. […]

Another experiment deals with LEFCH. The description is as above. It counts as in vivo, Leptochloa chinensis (L.) Nees. Particulars: 420 gai/ha. How it is done: as §1, §2, §3

As for `COc1cc(OC)nc(Oc2cccc(Oc3nc(OC)cc(OC)n3)c2C(=O)O)n1` [Bispyribac sodium], the “Visual Weed Control (%) - 21 DAA IPOHE Obs” value in the experiment on IPOHE was 60%. The “Visual Weed Control (%) - 21 DAA CYPES Obs” value in the experiment with CYPES was 20%.

Consider `CCOC(=O)[C@@H](C)Oc1ccc(Oc2nc3ccc(Cl)cc3o2)cc1` [Fenoxaprop-P-ethyl, ethyl(2R)-2-[4-[(6-chloro-2-benzoxazolyl)oxy]phenoxy]propanoate], for which the “Visual Weed Control (%) - 21 DAA APESV Obs” value with APESV (Fenoxaprop-P-ethyl 23 gai/ha) is on record as 50%; in the experiment on APESV (Fenoxaprop-P-ethyl 46 gai/ha), 83%. The “Visual Weed Control (%) - 21 DAA KCHSC Obs” value with KCHSC (Fenoxaprop-P-ethyl 23 gai/ha) and in the experiment with KCHSC (Fenoxaprop-P-ethyl 46 gai/ha) was 0% each time. The “Visual Weed Control (%) - 21 DAA PHAMI Obs” value in the experiment on PHAMI (Fenoxaprop-P-ethyl 23 gai/ha) worked out at 10%; in the experiment on PHAMI (Fenoxaprop-P-ethyl 46 gai/ha) it was 45%.

As to `CP(=O)(O)CCC(N)C(=O)O` (centres unmarked) [Glufosinate ammonium], in the experiment with ECHCO, the “Visual Weed Control (%) - 21 DAA ECHCO Obs” value is given as 0%.

Regarding `CNC.O=C(O)CNCP(=O)(O)O` [Glyphosate DMA], in the experiment with ECHCG, the “Visual Weed Control (%) - 21 DAA ECHCG Obs” value is 23%. Also, the “Visual Weed Control (%) - 21 DAA LEFCH Obs” value with LEFCH came out at 45%.
